Patent US20260028354A1, “TETRAHYDRONAPHTHALENE DERIVATIVES AS ESTROGEN RECEPTOR DEGRADERS” (REGENT OF THE UNIVERSITY OF MICHIGAN, priority 2022, published 2026)

Test: Western blot analysis for "B" compounds
Assay type: cell-based
Conditions: read-out: Traditional Western Degradation Potency (DC50)
Description: Western Blot Analysis. Western blot analysis was performed essentially as described previously. The cells treated with indicated compounds were lysed in Radioimmunoprecipitation Assay Protein Lysis and Extraction Buffer (25 mmol/I. Tris.HCl, pH 7.6, 150 mmol/L, NaCl, 1% Nonidet P-40, 1% sodium deoxycholate, and 0.1% sodium dodecyl sulfate) containing proteinase inhibitor cocktail (Roche Diagnostics, Mannheim, Germany). Equal amounts of total protein were electrophoresed through 10% SDS-polyacrylamide gels after determination of protein concentration by BCA assay (Fisher Scientific, Pittsburgh, PA), The separated protein bands were transferred onto PVDF membranes (GE Healthcare Life Sciences, Marlborough, MA) and blotted against different antibodies, as indicated. The blots were scanned, and the band intensities were quantified using GelQuant.NET software provided by biochemlabsolutions.com. The relative mean intensity of target proteins was expressed after normalization to the intensity of glyceraldehyde-3-phosphate dehydrogenase bands.

| SMILES | DC50 |
| --- | --- |
| O=C1CCC(N2C(=O)c3cc4c(cc3C2=O)CN(CC2CN(CC3CCN(c5ccc([C@@H]6c7ccc(O)cc7CC[C@@H]6c6ccccc6)cc5)CC3)C2)C4)C(=O)N1 (stereo partly drawn) [Compound B274, 2-(2,6-dioxopiperidin-3-yl)-6-((1-((1-(4-((1R,2S)-6-hydroxy-2-phenyl-1,2,3,4-tetrahydronaphthalen-1-yl)phenyl)piperidin-4-yl)methyl)azetidin-3-yl)methyl)-6,7-dihydropyrrolo[3,4-f]isoindole-1,3(2H,5H)-dione] | > 100 nM |
| O=C1CCC(N2C(=O)c3cc4c(cc3C2=O)CN(C2CCN(C(=O)C3(F)CCN(c5ccc([C@@H]6c7ccc(O)cc7CC[C@@H]6c6ccccc6)cc5)CC3)CC2)C4)C(=O)N1 (stereo partly drawn) [Compound B280, 2-(2,6-dioxopiperidin-3-yl)-6-(1-(4-fluoro-1-(4-((1R,2S)-6-hydroxy-2-phenyl-1,2,3,4-tetrahydronaphthalen-1-yl)phenyl)piperidine-4-carbonyl)piperidin-4-yl)-6,7-dihydropyrrolo[3,4-f]isoindole-1,3(2H,5H)-dione] | > 100 nM |
| O=C1CCC(N2C(=O)c3cc4c(cc3C2=O)CN(C(=O)C2CCN(CC3CN(c5ccc([C@@H]6c7ccc(O)cc7CC[C@@H]6c6ccccc6)cc5)C3)CC2)C4)C(=O)N1 (stereo partly drawn) [Compound B79, 2-(2,6-dioxopiperidin-3-yl)-6-(1-((1-(4-((1R,2S)-6-hydroxy-2-phenyl-1,2,3,4-tetrahydronaphthalen-1-yl)phenyl)azetidin-3-yl)methyl)piperidine-4-carbonyl)-6,7-dihydropyrrolo[3,4-f]isoindole-1,3(2H,5H)-dione] | > 100 nM |
| O=C1CCC(N2C(=O)c3cc4c(cc3C2=O)CN(CC(=O)N2CC3(CCC(Oc5ccc([C@@H]6c7ccc(O)cc7CC[C@@H]6c6ccccc6)cc5)CC3)C2)C4)C(=O)N1 (stereo partly drawn) [Compound B278, 2-(2,6-dioxopiperidin-3-yl)-6-(2-(7-(4-((1R,2S)-6-hydroxy-2-phenyl-1,2,3,4-tetrahydronaphthalen-1-yl)phenoxy)-2-azaspiro[3.5]nonan-2-yl)-2-oxoethyl)-6,7-dihydropyrrolo[3,4-f]isoindole-1,3(2H,5H)-dione] | > 100 nM |
| O=C1CCC(N2C(=O)c3cc4c(cc3C2=O)CN(CC(=O)N2CCC(C(=O)N3CC(Oc5ccc([C@@H]6c7ccc(O)cc7CC[C@@H]6c6ccccc6)cc5)C3)CC2)C4)C(=O)N1 (stereo partly drawn) [Compound B120, 2-(2,6-dioxopiperidin-3-yl)-6-(2-(4-(3-(4-((1R,2S)-6-hydroxy-2-phenyl-1,2,3,4-tetrahydronaphthalen-1-yl)phenoxy)azetidine-1-carbonyl)piperidin-1-yl)-2-oxoethyl)-6,7-dihydropyrrolo[3,4-f]isoindole-1,3(2H,5H)-dione] | > 100 nM |
| CN(C1CCN(c2ccc([C@@H]3c4ccc(O)cc4CC[C@@H]3c3ccccc3)cc2)CC1)C1CC(C(=O)N2Cc3cc4c(cc3C2)C(=O)N(C2CCC(=O)NC2=O)C4=O)C1 (stereo partly drawn) [Compound B111, 2-(2,6-dioxopiperidin-3-yl)-6-(3-((1-(4-((1R,2S)-6-hydroxy-2-phenyl-1,2,3,4-tetrahydronaphthalen-1-yl)phenyl)piperidin-4-yl)(methyl)amino)cyclobutane-1-carbonyl)-6,7-dihydropyrrolo[3,4-f]isoindole-1,3(2H,5H)-dione] | > 100 nM |
| O=C1CCC(N2C(=O)c3cc4c(cc3C2=O)CN(CC(=O)N2CCC3(CC2)CC(Oc2ccc([C@@H]5c6ccc(O)cc6CC[C@@H]5c5ccccc5)cc2)C3)C4)C(=O)N1 (stereo partly drawn) [Compound B275, 2-(2,6-dioxopiperidin-3-yl)-6-(2-(2-(4-((1R,2S)-6-hydroxy-2-phenyl-1,2,3,4-tetrahydronaphthalen-1-yl)phenoxy)-7-azaspiro[3.5]nonan-7-yl)-2-oxoethyl)-6,7-dihydropyrrolo[3,4-f]isoindole-1,3(2H,5H)-dione] | > 100 nM |
| O=C1CCC(N2C(=O)c3cc4c(cc3C2=O)CC2(C4)CN(CC3CCN(c4ccc([C@@H]5c6ccc(O)cc6CC[C@@H]5c5ccccc5)cc4)CC3)C2)C(=O)N1 (stereo partly drawn) [Compound B296, 2′-(2,6-dioxopiperidin-3-yl)-1-((1-(4-((1R,2S)-6-hydroxy-2-phenyl-1,2,3,4-tetrahydronaphthalen-1-yl)phenyl)piperidin-4-yl)methyl)-5′,7′-dihydro-1′H-spiro[azetidine-3,6′-cyclopenta[f]isoindole]-1′,3′(2'H)-dione] | > 100 nM |
| O=C1CCC(N2C(=O)c3cc4c(cc3C2=O)CN(C2CCC(NCC3CN(c5ccc([C@@H]6c7ccc(O)cc7CC[C@@H]6c6ccccc6)cc5)C3)CC2)C4)C(=O)N1 (stereo partly drawn) [Compound B101, 2-(2,6-dioxopiperidin-3-yl)-6-(4-(((1-(4-((1R,2S)-6-hydroxy-2-phenyl-1,2,3,4-tetrahydronaphthalen-1-yl)phenyl)azetidin-3-yl)methyl)amino)cyclohexyl)-6,7-dihydropyrrolo[3,4-f]isoindole-1,3(2H,5H)-dione] | > 100 nM |
| O=C1CCC(N2C(=O)c3cc4c(cc3C2=O)CN(c2ccc(CN3CC(Oc5ccc([C@@H]6c7ccc(O)cc7CC[C@@H]6c6ccccc6)cc5)C3)cn2)C4)C(=O)N1 (stereo partly drawn) [Compound B90, 2-(2,6-dioxopiperidin-3-yl)-6-(5-((3-(4-((1R,2S)-6-hydroxy-2-phenyl-1,2,3,4-tetrahydronaphthalen-1-yl)phenoxy)azetidin-1-yl)methyl)pyridin-2-yl)-6,7-dihydropyrrolo[3,4-f]isoindole-1,3(2H,5H)-dione] | > 100 nM |
| O=C1CCC(N2C(=O)c3cc4c(cc3C2=O)CN(CC(=O)N2CCC3(CC2)CN(C(=O)c2ccc([C@@H]5c6ccc(O)cc6CC[C@@H]5c5ccccc5)cc2)C3)C4)C(=O)N1 (stereo partly drawn) [Compound B291, 2-(2,6-dioxopiperidin-3-yl)-6-(2-(2-(4-((1R,2S)-6-hydroxy-2-phenyl-1,2,3,4-tetrahydronaphthalen-1-yl)benzoyl)-2,7-diazaspiro[3.5]nonan-7-yl)-2-oxoethyl)-6,7-dihydropyrrolo[3,4-f]isoindole-1,3(2H,5H)-dione] | > 100 nM |

The next lines start with the values.

| DC50 | SMILES |
| --- | --- |
| 10 to 100 nM | O=C1CCC(N2C(=O)c3cc4c(cc3C2=O)CN(CC2CCC(N3CCN(c5ccc([C@@H]6c7ccc(O)cc7CC[C@@H]6c6ccccc6)cc5)CC3)CC2)C4)C(=O)N1 (stereo partly drawn) [Compound B83, 2-(2,6-dioxopiperidin-3-yl)-6-((4-(4-(4-((1R,2S)-6-hydroxy-2-phenyl-1,2,3,4-tetrahydronaphthalen-1-yl)phenyl)piperazin-1-yl)cyclohcxyl)mcthyl)-6,7-dihydropyrrolo[3,4-f]isoindolc-1,3(2H,5H)-dione] |
| > 100 nM | O=C1CCC(N2C(=O)c3cc4c(cc3C2=O)CN(CC(=O)N2CCC3(CC2)CCN(c2cnc([C@H]5c6ccc(O)cc6CC[C@H]5c5ccccc5)cn2)CC3)C4)C(=O)N1 (mixture of isomers) [Compound B85, 2-(2,6-dioxopiperidin-3-yl)-6-(2-(9-(5-((1R,2R)-6-hydroxy-2-phenyl-1,2,3,4-tetrahydronaphthalen-1-yl)pyrazin-2-yl)-3,9-diazaspiro[5.5]undecan-3-yl)-2-oxoethyl)-6,7-dihydropyrrolo[3,4-f]isoindole-1,3(2H,5H)-dione] |
| 10 to 100 nM | O=C1CCC(N2C(=O)c3cc4c(cc3C2=O)CN(CC(=O)N2CCC3(CC2)CCN(c2ccc([C@@H]5c6ccc7[nH]ncc7c6CC[C@@H]5c5ccccc5)cc2)CC3)C4)C(=O)N1 (stereo partly drawn) [Compound B139, 2-(2,6-dioxopiperidin-3-yl)-6-(2-oxo-2-(9-(4-((6R,7S)-7-phenyl-6,7,8,9-tetrahydro-3H-benzo[e]indazol-6-yl)phenyl)-3,9-diazaspiro[5.5]undecan-3-yl)ethyl)-6,7-dihydropyrrolo[3,4-f]isoindole-1,3(2H,5H)-dione] |
| 10 to 100 nM | O=C1CCC(N2C(=O)c3cc4c(cc3C2=O)CN(CC(=O)N2CCC(N3CC(Oc5ccc([C@@H]6c7ccc(O)cc7CC[C@@H]6c6ccccc6)cc5)C3)CC2)C4)C(=O)N1 (stereo partly drawn) [Compound B121, 2-(2,6-dioxopiperidin-3-yl)-6-(2-(4-(3-(4-((1R,2S)-6-hydroxy-2-phenyl-1,2,3,4-tetrahydronaphthalen-1-yl)phenoxy)azetidin-1-yl)piperidin-1-yl)-2-oxoethyl)-6,7-dihydropyrrolo[3,4-f]isoindole-1,3(2H,5H)-dione] |
| 10 to 100 nM | O=C1CCC(N2C(=O)c3cc4c(cc3C2=O)CN(C(=O)CN2CCC3(CC2)CCN(c2ccc([C@@H]5c6ccc(O)cc6CC[C@@H]5c5ccccc5)cc2)CC3)C4)C(=O)N1 (mixture of isomers) [Compound B18, 2-(2,6-dioxopiperidin-3-yl)-6-(2-(9-(4-((1R,2S)-6-hydroxy-2-phenyl-1,2,3,4-tetrahydronaphthalen-1-yl)phenyl)-3,9-diazaspiro[5.5]undecan-3-yl)acetyl)-6,7-dihydropyrrolo[3,4-f]isoindole-1,3(2H,5H)-dione] |
| 10 to 100 nM | O=C1CCC(N2C(=O)c3cc4c(cc3C2=O)CN(C[C@H]2CC[C@H](C(=O)N3CC(Oc5ccc([C@@H]6c7ccc(O)cc7CC[C@@H]6c6ccccc6)cc5)C3)CC2)C4)C(=O)N1 (stereo partly drawn) [Compound B293, 2-(2,6-dioxopiperidin-3-yl)-6-(((1R,4r)-4-(3-(4-((1R,2S)-6-hydroxy-2-phenyl-1,2,3,4-tetrahydronaphthalen-1-yl)phenoxy)azetidine-1-carbonyl)cyclohexyl)methyl)-6,7-dihydropyrrolo[3,4-f]isoindole-1,3(2H,5H)-dione] |
| < 10 nM | O=C1CCC(N2C(=O)c3cc4c(cc3C2=O)CN(C(=O)[C@H]2CC[C@H](CN3CC(Nc5ccc([C@@H]6c7ccc(O)cc7CC[C@@H]6c6ccccc6)cc5)C3)CC2)C4)C(=O)N1 (stereo partly drawn) [Compound B112, 2-(2,6-dioxopiperidin-3-yl)-6-((1R,4r)-4-((3-((4-((1R,2S)-6-hydroxy-2-phenyl-1,2,3,4-tetrahydronaphthalen-1-yl)phenyl)amino)azetidin-1-yl)methyl)cyclohexane-1-carbonyl)-6,7-dihydropyrrolo[3,4-f]isoindole-1,3(2H,5H)-dione] |
